PubChem BioAssay (NCI)
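Cultured in 96-well plates, cells were exposed to test compound for 48 hours across five concentrations. At the TGI there is no net growth.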

Tests used:
Assay in all cases: NCI tumour cell line growth inhibition, 48 h
NCI-H460 lung = tested on: NCI-H460 lung
BT-549 breast = tested on: BT-549 breast
UACC-62 melanoma = tested on: UACC-62 melanoma
IGROV1 ovarian = tested on: IGROV1 ovarian
M14 melanoma = tested on: M14 melanoma
HCT-116 colon = tested on: HCT-116 colon
MCF7 breast = tested on: MCF7 breast
KM12 colon = tested on: KM12 colon
A549 NSCLC = tested on: A549 NSCLC
UACC-257 melanoma = tested on: UACC-257 melanoma
HCT-15 colon = tested on: HCT-15 colon
MDA-N = tested on: MDA-N
MALME-3M melanoma = tested on: MALME-3M melanoma
OVCAR-3 ovarian = tested on: OVCAR-3 ovarian
DU-145 prostate = tested on: DU-145 prostate
SNB-75 CNS = tested on: SNB-75 CNS
HT29 colon = tested on: HT29 colon
SF-539 CNS = tested on: SF-539 CNS
OVCAR-8 ovarian = tested on: OVCAR-8 ovarian
RXF 393 renal = tested on: RXF 393 renal
HOP-92 NSCLC = tested on: HOP-92 NSCLC
NCI/ADR-RES ovarian = tested on: NCI/ADR-RES ovarian
UO-31 renal = tested on: UO-31 renal
NCI-H226 lung = tested on: NCI-H226 lung
SK-MEL-2 melanoma = tested on: SK-MEL-2 melanoma
SK-OV-3 ovarian = tested on: SK-OV-3 ovarian
SF-268 CNS = tested on: SF-268 CNS
SF-295 CNS = tested on: SF-295 CNS
HL-60(TB) leukemia = tested on: HL-60(TB) leukemia
MDA-MB-435 = tested on: MDA-MB-435
K-562 leukemia = tested on: K-562 leukemia
NCI-H23 lung = tested on: NCI-H23 lung
OVCAR-4 ovarian = tested on: OVCAR-4 ovarian
EKVX NSCLC = tested on: EKVX NSCLC
NCI-H522 lung = tested on: NCI-H522 lung
U251 CNS = tested on: U251 CNS
CCRF-CEM leukemia = tested on: CCRF-CEM leukemia
SNB-19 CNS = tested on: SNB-19 CNS
SK-MEL-28 melanoma = tested on: SK-MEL-28 melanoma
MOLT-4 leukemia = tested on: MOLT-4 leukemia
ACHN renal = tested on: ACHN renal
786-0 renal = tested on: 786-0 renal
HS 578T breast = tested on: HS 578T breast
PC-3 prostate = tested on: PC-3 prostate
OVCAR-5 ovarian = tested on: OVCAR-5 ovarian
SN12C renal = tested on: SN12C renal
HOP-62 NSCLC = tested on: HOP-62 NSCLC
A498 renal = tested on: A498 renal
LOX IMVI melanoma = tested on: LOX IMVI melanoma
MDA-MB-231 breast = tested on: MDA-MB-231 breast
T-47D breast = tested on: T-47D breast
RPMI-8226 leukemia = tested on: RPMI-8226 leukemia
TK-10 renal = tested on: TK-10 renal
SW-620 colon = tested on: SW-620 colon
CAKI-1 renal = tested on: CAKI-1 renal
COLO 205 colon = tested on: COLO 205 colon
SK-MEL-5 melanoma = tested on: SK-MEL-5 melanoma
HCC-2998 colon = tested on: HCC-2998 colon

`C=C1C(=O)C2=C[C@H]1C[C@H](O)C(=O)[C@]1(C)CCCC(C)(C)[C@H]1C[C@H]2O` showed a TGI (NCI-H460 lung) of 8.77 µM, a TGI (BT-549 breast) of 5.66 µM and a TGI (UACC-62 melanoma) of 3.05 µM. It also gave a TGI (IGROV1 ovarian) of 12.8 µM, a TGI (M14 melanoma) of 2.85 µM and a TGI (HCT-116 colon) of 3 µM. For the same molecule, the TGI (MCF7 breast) was 1.63 µM, the TGI (KM12 colon) was 5.78 µM and the TGI (A549 NSCLC) was 2.81 µM. The TGI (UACC-257 melanoma) was 4.27 µM, the TGI (HCT-15 colon) was 1.96 µM and the TGI (MDA-N) was 4.06 µM. It also gave a TGI (MALME-3M melanoma) of 2050 nM, a TGI (OVCAR-3 ovarian) of 4 µM and a TGI (DU-145 prostate) of 4.04 µM. It also gave a TGI (SNB-75 CNS) of 17.4 µM, a TGI (HT29 colon) of 2.85 µM and a TGI (SF-539 CNS) of 2.6 µM. It also gave a TGI (OVCAR-8 ovarian) of 5.93 µM, a TGI (RXF 393 renal) of 1.3 µM and a TGI (HOP-92 NSCLC) of 3.01 µM. For the same molecule, the TGI (NCI/ADR-RES ovarian) was 3.16 µM, the TGI (UO-31 renal) was 5.27 µM and the TGI (NCI-H226 lung) was 23 µM. The TGI (SK-MEL-2 melanoma) was 20.9 µM, the TGI (SK-OV-3 ovarian) was 25.4 µM and the TGI (SF-268 CNS) was 13.9 µM. It also gave a TGI (SF-295 CNS) of 20.5 µM, a TGI (HL-60(TB) leukemia) of 1.03 µM and a TGI (MDA-MB-435) of 10.2 µM. The TGI (K-562 leukemia) was 824 nM, the TGI (NCI-H23 lung) was 3.15 µM and the TGI (OVCAR-4 ovarian) was 19.2 µM. For the same molecule, the TGI (EKVX NSCLC) was 3.31 µM, the TGI (NCI-H522 lung) was 1410 nM and the TGI (U251 CNS) was 2.6 µM. It also gave a TGI (CCRF-CEM leukemia) of 0.326 µM, a TGI (SNB-19 CNS) of 29.8 µM and a TGI (SK-MEL-28 melanoma) of 3.44 µM. It also gave a TGI (MOLT-4 leukemia) of 10.3 µM, a TGI (ACHN renal) of 1.65 µM and a TGI (786-0 renal) of 2.14 µM. The TGI (HS 578T breast) was 8.61 µM, the TGI (PC-3 prostate) was 3.62 µM and the TGI (OVCAR-5 ovarian) was 3.72 µM. The TGI (SN12C renal) was 4.07 µM, the TGI (HOP-62 NSCLC) was 25.5 µM and the TGI (A498 renal) was 3.73 µM. The TGI (LOX IMVI melanoma) was 2.14 µM, the TGI (MDA-MB-231 breast) was 2.64 µM and the TGI (T-47D breast) was 2.36 µM. It also gave a TGI (RPMI-8226 leukemia) of 1.02 µM, a TGI (TK-10 renal) of 2.08 µM and a TGI (SW-620 colon) of 1950 nM. It also gave a TGI (CAKI-1 renal) of 2.85 µM and a TGI (COLO 205 colon) of 1.85 µM.

Work on `COc1ccccc1C1(c2c(OC(C)C)c(=O)c2=O)SCCCS1` yielded a TGI (NCI-H460 lung) of over 100 µM, a TGI (BT-549 breast) of over 100 µM and a TGI (UACC-62 melanoma) of over 100 µM. For the same molecule, the TGI (SK-MEL-5 melanoma) was over 100 µM, the TGI (IGROV1 ovarian) was over 100 µM and the TGI (M14 melanoma) was over 100 µM. For the same molecule, the TGI (HCT-116 colon) was over 100 µM, the TGI (MCF7 breast) was over 100 µM and the TGI (KM12 colon) was over 100 µM. The TGI (A549 NSCLC) was over 100 µM, the TGI (UACC-257 melanoma) was over 100 µM and the TGI (HCT-15 colon) was over 100 µM. The TGI (MDA-N) was over 100 µM, the TGI (OVCAR-3 ovarian) was over 100 µM and the TGI (DU-145 prostate) was over 100 µM. For the same molecule, the TGI (SNB-75 CNS) was over 100 µM, the TGI (HT29 colon) was over 100 µM and the TGI (SF-539 CNS) was over 100 µM. The TGI (OVCAR-8 ovarian) was over 100 µM, the TGI (RXF 393 renal) was over 100 µM and the TGI (HOP-92 NSCLC) was over 100 µM. For the same molecule, the TGI (NCI/ADR-RES ovarian) was over 100 µM, the TGI (UO-31 renal) was over 100 µM and the TGI (NCI-H226 lung) was over 100 µM. For the same molecule, the TGI (SK-MEL-2 melanoma) was over 100 µM, the TGI (SK-OV-3 ovarian) was over 100 µM and the TGI (SF-268 CNS) was over 100 µM. The TGI (SF-295 CNS) was over 100 µM, the TGI (HL-60(TB) leukemia) was over 100 µM and the TGI (MDA-MB-435) was over 100 µM. For the same molecule, the TGI (NCI-H23 lung) was over 100 µM, the TGI (OVCAR-4 ovarian) was over 100 µM and the TGI (EKVX NSCLC) was over 100 µM. For the same molecule, the TGI (NCI-H522 lung) was over 100000 nM, the TGI (U251 CNS) was over 100 µM and the TGI (CCRF-CEM leukemia) was over 100 µM. It also gave a TGI (SNB-19 CNS) of over 100 µM, a TGI (SK-MEL-28 melanoma) of over 100 µM and a TGI (MOLT-4 leukemia) of over 100 µM. For the same molecule, the TGI (ACHN renal) was over 100 µM, the TGI (786-0 renal) was over 100 µM and the TGI (HS 578T breast) was over 100 µM. It also gave a TGI (PC-3 prostate) of over 100 µM, a TGI (OVCAR-5 ovarian) of over 100 µM and a TGI (SN12C renal) of over 100 µM. It also gave a TGI (HOP-62 NSCLC) of over 100 µM, a TGI (A498 renal) of over 100 µM and a TGI (LOX IMVI melanoma) of over 100 µM. It also gave a TGI (MDA-MB-231 breast) of over 100 µM, a TGI (T-47D breast) of over 100 µM and a TGI (TK-10 renal) of over 100 µM. The TGI (SW-620 colon) was over 100000 nM, the TGI (CAKI-1 renal) was over 100 µM and the TGI (COLO 205 colon) was over 100 µM.

With `CO/C=C(/C(=O)OC)c1ccccc1Oc1c(F)c(F)c(F)c(F)c1F` the TGI (NCI-H460 lung) was over 100 µM, the TGI (BT-549 breast) was over 100 µM and the TGI (UACC-62 melanoma) was 68.5 µM. For the same molecule, the TGI (SK-MEL-5 melanoma) was 40.8 µM, the TGI (IGROV1 ovarian) was 97.7 µM and the TGI (M14 melanoma) was over 100 µM. The TGI (HCT-116 colon) was 56 µM, the TGI (MCF7 breast) was over 100 µM and the TGI (KM12 colon) was over 100 µM. For the same molecule, the TGI (A549 NSCLC) was over 100 µM, the TGI (UACC-257 melanoma) was 82.7 µM and the TGI (HCT-15 colon) was over 100 µM. For the same molecule, the TGI (MDA-N) was over 100 µM, the TGI (OVCAR-3 ovarian) was 62.4 µM and the TGI (DU-145 prostate) was over 100 µM. The TGI (HT29 colon) was over 100 µM, the TGI (SF-539 CNS) was over 100 µM and the TGI (OVCAR-8 ovarian) was over 100 µM. The TGI (RXF 393 renal) was 63.8 µM, the TGI (HOP-92 NSCLC) was 69.2 µM and the TGI (NCI/ADR-RES ovarian) was over 100 µM. It also gave a TGI (UO-31 renal) of over 100 µM, a TGI (NCI-H226 lung) of over 100 µM and a TGI (SK-MEL-2 melanoma) of 58.1 µM. It also gave a TGI (SK-OV-3 ovarian) of over 100 µM, a TGI (SF-268 CNS) of over 100 µM and a TGI (SF-295 CNS) of over 100 µM. It also gave a TGI (HL-60(TB) leukemia) of 5.72 µM, a TGI (MDA-MB-435) of 77.8 µM and a TGI (K-562 leukemia) of over 100000 nM. For the same molecule, the TGI (NCI-H23 lung) was over 100 µM, the TGI (OVCAR-4 ovarian) was 85.4 µM and the TGI (EKVX NSCLC) was over 100 µM. The TGI (U251 CNS) was over 100 µM, the TGI (CCRF-CEM leukemia) was 98.5 µM and the TGI (SNB-19 CNS) was over 100 µM. For the same molecule, the TGI (SK-MEL-28 melanoma) was over 100 µM, the TGI (MOLT-4 leukemia) was 30.4 µM and the TGI (ACHN renal) was over 100 µM. For the same molecule, the TGI (786-0 renal) was over 100 µM, the TGI (HS 578T breast) was 86 µM and the TGI (PC-3 prostate) was over 100 µM. It also gave a TGI (OVCAR-5 ovarian) of over 100 µM, a TGI (SN12C renal) of over 100 µM and a TGI (HOP-62 NSCLC) of over 100 µM. For the same molecule, the TGI (A498 renal) was 92.9 µM, the TGI (LOX IMVI melanoma) was over 100 µM and the TGI (MDA-MB-231 breast) was over 100 µM. The TGI (T-47D breast) was 73.1 µM, the TGI (HCC-2998 colon) was over 100 µM and the TGI (RPMI-8226 leukemia) was 41.2 µM. The TGI (TK-10 renal) was 88.2 µM, the TGI (CAKI-1 renal) was 66.5 µM and the TGI (COLO 205 colon) was 35.3 µM.
